Experimental data: PMC9290024 (ACS Medicinal Chemistry Letters, 2022)

Columns and labels:
[1] = Stability in human hepatocytes; type: in vitro ADME; conditions: 0.5 μM, 120 min
[2] = Stability in rat hepatocytes; type: in vitro ADME; conditions: 0.5 μM, 60 min
[3] = Stability in mouse hepatocytes; type: in vitro ADME; conditions: 0.5 μM, 60 min
[4] = Pharmacokinetics in CD-1 IGS mouse; conditions: mouse PK studies; for parent recovered in feces following iv administration: data not shown

Compound	scaled Clint, human hepatocytes [1] [mL min^–1 kg^–1]	scaled Clint, rat hepatocytes [2] [mL min^–1 kg^–1]	scaled Clint, mouse hepatocytes [3] [mL min^–1 kg^–1]	oral absorption [4]	parent recovered in feces following iv administration [4]
Cc1ccc(F)c2cc(C(=O)N[C@@H]3CCC[C@H](N4CC[C@H](N(C)S(C)(=O)=O)C4)C3)[nH]c12 [EPZ-719, reference compound]	51	137	721		
CC(=O)N1CCN([C@H]2CCC[C@@H](NC(=O)c3cc4c(F)ccc(C)c4[nH]3)C2)CC1 [EZM0414]	9	154	216		
CC(=O)N1CCN(c2cccc(NC(=O)c3cc4c(F)ccc(C)c4[nH]3)c2)CC1 [compound 3]	32	283	678		
Cc1ccc(F)c2cc(C(=O)N[C@@H]3CCC[C@H](N4CCN5C(=O)CC[C@H]5C4)C3)[nH]c12 [compound 7]	23	69	425		
CC(=O)N1CC[C@H]2CN([C@H]3CCC[C@@H](NC(=O)c4cc5c(F)ccc(C)c5[nH]4)C3)C[C@H]21 [compound 8]	18	265	889	reasonable oral absorption	17–30%
CC(=O)N1CC[C@H]2[C@@H]1CCN2[C@H]1CCC[C@@H](NC(=O)c2cc3c(F)ccc(C)c3[nH]2)C1 [compound 9]	5	72	103	reasonable oral absorption	17–30%
